Source: ChEMBL document CHEMBL3046027, “In vitro and in vivo antifungal activity of synthetic pure isothiocyanates against Sclerotinia sclerotiorum” (Pest Manag Sci, 2011)

Assays:
[1] = system: Sclerotinia sclerotiorum; experiment: In vivo antifungal Sclerotinia sclerotiorum in Pepper (Capsicum annuum L. cv. Sera Demre) assessed as inhibition of mycelial growth in volatile phase at 204 umol/L measured after 10 to 14 weeks; assay type: functional
[2] = system: Sclerotinia sclerotiorum; experiment: Antifungal activity against Sclerotinia sclerotiorum assessed as inhibition of mycelial growth in contact phase at 3065 umol/l measured at 20 degC after 5 days; assay type: functional; conditions: 120 h, read-out: GI
[3] = system: Sclerotinia sclerotiorum; experiment: Antifungal activity against Sclerotinia sclerotiorum assessed as inhibition of mycelial growth in contact phase at 2043 umol/l measured at 20 degC after 5 days; assay type: functional; conditions: 120 h, read-out: GI
[4] = system: Sclerotinia sclerotiorum; experiment: Antifungal activity against Sclerotinia sclerotiorum assessed as inhibition of mycelial growth in contact phase at 1022 umol/l measured at 20 degC after 5 days; assay type: functional; conditions: 120 h, read-out: GI
[5] = system: Sclerotinia sclerotiorum; experiment: Antifungal activity against Sclerotinia sclerotiorum assessed as inhibition of mycelial growth in contact phase at 920 umol/l measured at 20 degC after 5 days; assay type: functional; conditions: 120 h, read-out: GI
[6] = system: Sclerotinia sclerotiorum; experiment: Antifungal activity against Sclerotinia sclerotiorum assessed as inhibition of mycelial growth in contact phase at 715 umol/l measured at 20 degC after 5 days; assay type: functional; conditions: 120 h, read-out: GI
[7] = system: Sclerotinia sclerotiorum; experiment: Fungistatic activity in Sclerotinia sclerotiorum assessed as inhibition of carpogenic germination in volatile phase at 1020 umol/l measured at 20 degC after 5 days relative to control; assay type: functional; conditions: 120 h
[8] = system: Sclerotinia sclerotiorum; experiment: Fungistatic activity in Sclerotinia sclerotiorum assessed as inhibition of carpogenic germination in volatile phase at 510 umol/l measured at 20 degC after 5 days relative to control; assay type: functional; conditions: 120 h
[9] = system: Sclerotinia sclerotiorum; experiment: Fungistatic activity in Sclerotinia sclerotiorum assessed as inhibition of carpogenic germination in volatile phase at 102 umol/l measured at 20 degC after 5 days relative to control; assay type: functional; conditions: 120 h
[10] = system: Sclerotinia sclerotiorum; experiment: Fungistatic activity in Sclerotinia sclerotiorum assessed as inhibition of carpogenic germination in volatile phase at 51 umol/l measured at 20 degC after 5 days relative to control; assay type: functional; conditions: 120 h
[11] = system: Sclerotinia sclerotiorum; experiment: In vivo antifungal Sclerotinia sclerotiorum in Pepper (Capsicum annuum L. cv. Sera Demre) assessed as inhibition of mycelial growth in volatile phase at 102 umol/L measured after 10 to 14 weeks; assay type: functional
[12] = system: Sclerotinia sclerotiorum; experiment: Fungistatic activity in Sclerotinia sclerotiorum assessed as inhibition of mycelial growth in volatile phase measured at 20 degC after 5 days; assay type: functional, organism-based; conditions: 120 h
[13] = system: Sclerotinia sclerotiorum; experiment: Fungistatic activity in Sclerotinia sclerotiorum assessed as inhibition of mycelial growth in contact phase measured at 20 degC after 5 days; assay type: functional, organism-based; conditions: 120 h
[14] = system: Sclerotinia sclerotiorum; experiment: Antifungal activity against Sclerotinia sclerotiorum assessed as inhibition of mycelial growth in volatile phase at 1020 umol/l measured at 20 degC after 5 days; assay type: functional; conditions: 120 h, read-out: GI
[15] = system: Sclerotinia sclerotiorum; experiment: Antifungal activity against Sclerotinia sclerotiorum assessed as inhibition of mycelial growth in volatile phase at 714 umol/l measured at 20 degC after 5 days; assay type: functional; conditions: 120 h, read-out: GI
[16] = system: Sclerotinia sclerotiorum; experiment: Antifungal activity against Sclerotinia sclerotiorum assessed as inhibition of mycelial growth in volatile phase at 510 umol/l measured at 20 degC after 5 days; assay type: functional; conditions: 120 h, read-out: GI
[17] = system: Sclerotinia sclerotiorum; experiment: Antifungal activity against Sclerotinia sclerotiorum assessed as inhibition of mycelial growth in volatile phase at 102 umol/l measured at 20 degC after 5 days; assay type: functional; conditions: 120 h, read-out: GI
[18] = system: Sclerotinia sclerotiorum; experiment: Antifungal activity against Sclerotinia sclerotiorum assessed as inhibition of mycelial growth in volatile phase at 51 umol/l measured at 20 degC after 5 days; assay type: functional; conditions: 120 h, read-out: GI
[19] = system: Sclerotinia sclerotiorum; experiment: Fungistatic activity in Sclerotinia sclerotiorum assessed as inhibition of mycelial growth in contact phase at 3065 umol/l measured at 20 degC after 5 days relative to control; assay type: functional; conditions: 120 h, read-out: GI
[20] = system: Sclerotinia sclerotiorum; experiment: Fungitoxic activity in Sclerotinia sclerotiorum assessed as inhibition of mycelial growth in volatile phase at 1020 umol/l measured at 20 degC after 5 days relative to control; assay type: functional; conditions: 120 h, read-out: GI
[21] = system: Sclerotinia sclerotiorum; experiment: Antifungal activity against Sclerotinia sclerotiorum assessed as inhibition of germination in volatile phase at 1022 umol/l measured at 20 degC after 5 days; assay type: functional; conditions: 120 h
[22] = system: Sclerotinia sclerotiorum; experiment: Antifungal activity against Sclerotinia sclerotiorum assessed as inhibition of germination in volatile phase at 511 umol/l measured at 20 degC after 5 days; assay type: functional; conditions: 120 h
[23] = system: Sclerotinia sclerotiorum; experiment: Antifungal activity against Sclerotinia sclerotiorum assessed as inhibition of germination in volatile phase at 307 umol/l measured at 20 degC after 5 days; assay type: functional; conditions: 120 h
[24] = system: Sclerotinia sclerotiorum; experiment: Antifungal activity against Sclerotinia sclerotiorum assessed as inhibition of germination in volatile phase at 102 umol/l measured at 20 degC after 5 days; assay type: functional; conditions: 120 h
[25] = system: Sclerotinia sclerotiorum; experiment: Antifungal activity against Sclerotinia sclerotiorum assessed as inhibition of germination in volatile phase at 51 umol/l measured at 20 degC after 5 days; assay type: functional; conditions: 120 h
[26] = system: Sclerotinia sclerotiorum; experiment: Fungistatic activity in Sclerotinia sclerotiorum assessed as inhibition of mycelial growth in volatile phase at 714 umol/l measured at 20 degC after 5 days relative to control; assay type: functional; conditions: 120 h, read-out: GI

`C=CCN=C=S` [ALLYL ISOTHIOCYANATE] showed an inhibition in vivo at 204 µM [1] of 81.7%, an inhibition of growth at 3065 µM [2] of 100% and an inhibition of growth at 2043 µM [3] of 77%. It also gave an inhibition of growth at 1022 µM [4] of 45.5%, an inhibition of growth at 920 µM [5] of 37.7% and an inhibition of growth at 715 µM [6] of 32%. It also gave an inhibition at 1020 µM [7] of 75%, an inhibition at 510 µM [8] of 67.5% and an inhibition at 102 µM [9] of 67.5%. It also gave an inhibition at 51 µM [10] of 60%, an inhibition in vivo at 102 µM [11] of 76.7% and an EC50 [12] of 71.5 µM. The EC50 [13] was 1060 µM, the inhibition of growth at 1020 µM [14] was 100% and the inhibition of growth at 714 µM [15] was 100%. It also gave an inhibition of growth at 510 µM [16] of 87%, an inhibition of growth at 102 µM [17] of 50.7% and an inhibition of growth at 51 µM [18] of 45.7%. For the same compound, the inhibition of growth at 3065 µM [19] was 100%, the inhibition of growth at 1020 µM [20] was 100% and the inhibition at 1022 µM [21] was 0%. It also gave an inhibition at 511 µM [22] of 0%, an inhibition at 307 µM [23] of 0% and an inhibition at 102 µM [24] of 0%. It also gave an inhibition at 51 µM [25] of 0% and an inhibition of growth at 714 µM [26] of 100%.
